Test results from ChEMBL document CHEMBL1149319, “Phe-Gly dipeptidomimetics designed for the di-/tripeptide transporters PEPT1 and PEPT2: synthesis and biological investigations” (J Med Chem, 2004).
Peptide text beside a SMILES is read from it.

Key:
[1] = Concentration required to inhibit the maximum [14C]Gly-Sar uptake by Renal peptide transporter PepT2 in SKPT cells; type: cell-based; settings: Rattus norvegicus
[2] = Affinity against Renal peptide transporter PepT2 in SKPT cells was measured by the inhibition of [14C]Gly-Sar uptake; type: cell-based, Rattus norvegicus
[3] = target: T1, Solute carrier family 15 member 1 (Homo sapiens, UniProt P46059); assay: Affinity fo the compound against human Intestinal peptide transporter PepT1 in Caco-2 cells was measured as inhibition of [14C]Gly-Sar uptake; type: cell-based
T1 sequence (P46059 whole entry): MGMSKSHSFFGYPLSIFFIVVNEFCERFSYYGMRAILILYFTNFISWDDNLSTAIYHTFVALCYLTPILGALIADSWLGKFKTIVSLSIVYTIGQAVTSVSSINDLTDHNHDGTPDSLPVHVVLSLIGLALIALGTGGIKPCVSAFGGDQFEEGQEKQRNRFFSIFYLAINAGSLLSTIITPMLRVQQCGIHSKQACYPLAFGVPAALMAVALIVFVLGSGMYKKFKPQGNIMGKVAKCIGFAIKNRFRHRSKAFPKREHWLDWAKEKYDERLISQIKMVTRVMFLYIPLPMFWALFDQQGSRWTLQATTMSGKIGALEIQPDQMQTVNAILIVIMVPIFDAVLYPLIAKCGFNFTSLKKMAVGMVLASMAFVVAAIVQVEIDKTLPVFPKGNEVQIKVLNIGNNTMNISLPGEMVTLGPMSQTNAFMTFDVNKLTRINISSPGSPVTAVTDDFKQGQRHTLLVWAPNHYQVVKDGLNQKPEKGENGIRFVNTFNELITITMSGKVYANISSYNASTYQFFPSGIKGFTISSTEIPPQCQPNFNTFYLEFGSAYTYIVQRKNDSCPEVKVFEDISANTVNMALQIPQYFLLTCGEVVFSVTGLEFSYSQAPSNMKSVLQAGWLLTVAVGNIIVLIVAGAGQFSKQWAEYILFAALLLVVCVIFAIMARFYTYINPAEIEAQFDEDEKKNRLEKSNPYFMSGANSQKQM

[4] = target: T1, Solute carrier family 15 member 1; assay: Concentration required to inhibit the maximum [14C]Gly-Sar uptake by human Intestinal peptide transporter PepT1 in Caco-2 cells; type: cell-based

| SMILES | IC50 [1] | Ki [2] | Ki [3] | IC50 [4] |
| --- | --- | --- | --- | --- |
| N[C@@H](Cc1ccccc1)[C@@H](O)/C=C/C(=O)O | 1.59 mM | 1.35 mM | 39.8 mM | 40.5 mM |
| N[C@@H](Cc1ccccc1)[C@H](O)/C=C/C(=O)O | 4.11 mM | 3.48 mM | 26.4 mM | 26.8 mM |
| N[C@@H](Cc1ccccc1)[C@H](O)CCC(=O)O | 8.8 mM | 7.45 mM |  |  |
| N[C@@H](Cc1ccccc1)[C@@H](O)CCC(=O)O | 8.18 mM | 6.92 mM |  |  |

Compounds with a lower IC50 [1], results first:

| IC50 [1] | Ki [2] | Ki [3] | IC50 [4] | SMILES |
| --- | --- | --- | --- | --- |
| 0.0416 mM | 0.0352 mM |  |  | CC1=C(C(=O)O)N2C(=O)[C@@H](NC(=O)[C@H](N)c3ccccc3)[C@H]2SC1 [CEPHALEXIN ANHYDROUS] |
| 0.0222 mM | 0.0188 mM | 0.4 mM | 0.4 mM | N[C@@H](Cc1ccccc1)C(=O)CCC(=O)O |
| 0.0172 mM | 0.0146 mM | 0.2 mM | 0.2 mM | N[C@@H](Cc1ccccc1)C(=O)NCC(=O)O (H-Phe-Gly-OH) |
